ChEMBL document CHEMBL4715730, “Design, synthesis, and pharmacological evaluation of multitarget-directed ligands with both serotonergic subtype 4 receptor (5-HT4R) partial agonist and 5-HT6R antagonist activities, as potential treatment of Alzheimer's disease” (Eur J Med Chem, 2016)
Active and inactive are the calls of the source. The calls are words filed in the database; no cut-off is given here.

Experiments:
[1] = target: T1, 5-hydroxytryptamine receptor 2C (Homo sapiens, UniProt P28335); assay: Displacement of [125I]+/-DOI from human recombinant 5-HT2C receptor after 60 mins by scintillation counting analysis
T1 sequence (P28335 whole entry): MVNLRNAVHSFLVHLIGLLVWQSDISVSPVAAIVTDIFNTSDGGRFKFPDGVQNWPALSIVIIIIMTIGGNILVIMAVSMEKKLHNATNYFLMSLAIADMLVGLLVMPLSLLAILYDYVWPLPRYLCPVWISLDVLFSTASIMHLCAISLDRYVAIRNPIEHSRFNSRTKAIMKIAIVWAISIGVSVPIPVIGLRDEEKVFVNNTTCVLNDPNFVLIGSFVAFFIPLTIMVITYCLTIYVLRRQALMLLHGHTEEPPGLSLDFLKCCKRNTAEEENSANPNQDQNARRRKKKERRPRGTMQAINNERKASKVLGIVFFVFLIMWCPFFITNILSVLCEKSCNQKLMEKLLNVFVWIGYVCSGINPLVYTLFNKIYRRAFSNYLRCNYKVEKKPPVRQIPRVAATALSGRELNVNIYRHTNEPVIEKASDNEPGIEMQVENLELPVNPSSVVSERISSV

[2] = target: 5-hydroxytryptamine receptor 2B (Homo sapiens) (UniProt P41595); assay: Displacement of [125I]+/-DOI from human recombinant 5-HT2B receptor at 0.01 uM after 60 mins by scintillation counting analysis relative to control
[3] = target: T2, 5-hydroxytryptamine receptor 2C (Homo sapiens) (UniProt P28335); assay: Displacement of [125I]+/-DOI from human recombinant 5-HT2C receptor at 10 uM after 60 mins by scintillation counting analysis relative to control
T2 sequence (whole entry): T1 sequence (P28335 whole entry)

[4] = target: 5-hydroxytryptamine receptor 2B (Homo sapiens) (UniProt P41595); assay: Displacement of [125I]+/-DOI from human recombinant 5-HT2B receptor at 10 uM after 60 mins by scintillation counting analysis relative to control
[5] = target: T3, 5-hydroxytryptamine receptor 2A (Homo sapiens, UniProt P28223); assay: Displacement of [3H]ketanserin human recombinant 5-HT2A receptor after 60 mins by scintillation counting analysis relative to control
[6] = target: T3, 5-hydroxytryptamine receptor 2A; assay: Displacement of [3H]ketanserin human recombinant 5-HT2A receptor at 10 uM after 60 mins by scintillation counting analysis relative to control
[7] = target: 5-hydroxytryptamine receptor 1D (Rattus norvegicus) (UniProt P28565); assay: Displacement of [3H]serotonin from recombinant rat 5-HT1D receptor at 10 uM after 60 mins by scintillation counting analysis relative to control
[8] = target: 5-hydroxytryptamine receptor 1B (Rattus norvegicus) (UniProt P28564); assay: Displacement of [125I]-CYP from rat brain 5-HT1B receptor at 10 uM after 120 mins by scintillation counting analysis relative to control; assay type: tissue-based
[9] = target: T4, 5-hydroxytryptamine receptor 1A (Homo sapiens) (UniProt P08908); assay: Displacement of [3H]8-OH-DPAT from recombinant human 5-HT1A receptor at 10 uM after 60 mins by scintillation counting analysis relative to control
T4 sequence (whole entry): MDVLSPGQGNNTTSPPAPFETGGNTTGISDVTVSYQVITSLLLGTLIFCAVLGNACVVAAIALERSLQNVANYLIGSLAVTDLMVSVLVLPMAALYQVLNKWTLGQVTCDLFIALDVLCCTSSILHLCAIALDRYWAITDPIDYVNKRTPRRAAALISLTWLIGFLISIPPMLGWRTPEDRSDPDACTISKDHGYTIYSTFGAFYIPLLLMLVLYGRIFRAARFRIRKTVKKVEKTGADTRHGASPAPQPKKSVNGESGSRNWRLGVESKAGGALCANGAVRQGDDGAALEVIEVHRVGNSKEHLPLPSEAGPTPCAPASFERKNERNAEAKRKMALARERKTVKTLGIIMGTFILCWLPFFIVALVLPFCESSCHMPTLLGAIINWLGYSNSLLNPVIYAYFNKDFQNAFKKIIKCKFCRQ

Mus musculus [10] = assay: Anti-amnesic effect in scopolamine-induced memory impairment NMRI mouse model assessed as spatial working memory by measuring increase in spontaneous alteration at 10 mg/kg, ip measured after 30 mins by Y-maze test; assay type: functional, organism-based
Mus musculus [11] = assay: Anti-amnesic effect in scopolamine-induced memory impairment NMRI mouse model assessed as spatial working memory by measuring increase in spontaneous alteration at 1 mg/kg, ip measured after 30 mins by Y-maze test; assay type: functional, organism-based
[12] = Effect on spontaneous locomotory activity in NMRI mouse at 100 mg/kg, ip measured for 30 mins; assay type: organism-based; conditions: in vivo, 0.5 h
[13] = Toxicity in NMRI mouse assessed as behavioral changes upto 100 mg/kg, ip measured 0.5 to 24 hrs; assay type: organism-based; conditions: in vivo, time 0.5-24 hrs
[14] = Toxicity in NMRI mouse assessed as neurological changes upto 100 mg/kg, ip measured 0.5 to 24 hrs; assay type: organism-based; conditions: in vivo, time 0.5-24 hrs
[15] = target: T5, 5-hydroxytryptamine receptor 6 (Homo sapiens, UniProt P50406); assay: Displacement of [3H]-LSD from human 5-HT6 receptor expressed in HEK293 cells in presence of serotonin incubated for 60 mins; assay type: cell-based
[16] = target: T5, 5-hydroxytryptamine receptor 6; assay: Displacement of [3H]-LSD from human 5-HT6 receptor expressed in HEK293 cells at 0.01 uM in presence of serotonin incubated for 60 mins; assay type: cell-based
[17] = target: T5, 5-hydroxytryptamine receptor 6; assay: Displacement of [3H]-LSD from human 5-HT6 receptor expressed in HEK293 cells at 1 uM in presence of serotonin incubated for 60 mins; assay type: cell-based
[18] = target: 5-hydroxytryptamine receptor 4 (Cavia porcellus, UniProt O70528); assay: Displacement of [3H]-GR113808 from guinea pig brain 5HT4 receptor in presence of serotonin incubated for 30 mins; assay type: tissue-based
[19] = target: 5-hydroxytryptamine receptor 4 (Cavia porcellus) (UniProt O70528); assay: Displacement of [3H]-GR113808 from guinea pig brain 5HT4 receptor at 0.01 uM in presence of serotonin incubated for 30 mins; assay type: tissue-based
[20] = target: 5-hydroxytryptamine receptor 4 (Cavia porcellus) (UniProt O70528); assay: Displacement of [3H]-GR113808 from guinea pig brain 5HT4 receptor at 1 uM in presence of serotonin incubated for 30 mins; assay type: tissue-based
Mus musculus [21] = assay: Anti-amnesic effect in scopolamine-induced memory impairment NMRI mouse model assessed as spatial working memory by measuring increase in spontaneous alteration at 0.1 mg/kg, ip measured after 30 mins by Y-maze test; assay type: functional, organism-based

T5 sequence (P50406 whole entry): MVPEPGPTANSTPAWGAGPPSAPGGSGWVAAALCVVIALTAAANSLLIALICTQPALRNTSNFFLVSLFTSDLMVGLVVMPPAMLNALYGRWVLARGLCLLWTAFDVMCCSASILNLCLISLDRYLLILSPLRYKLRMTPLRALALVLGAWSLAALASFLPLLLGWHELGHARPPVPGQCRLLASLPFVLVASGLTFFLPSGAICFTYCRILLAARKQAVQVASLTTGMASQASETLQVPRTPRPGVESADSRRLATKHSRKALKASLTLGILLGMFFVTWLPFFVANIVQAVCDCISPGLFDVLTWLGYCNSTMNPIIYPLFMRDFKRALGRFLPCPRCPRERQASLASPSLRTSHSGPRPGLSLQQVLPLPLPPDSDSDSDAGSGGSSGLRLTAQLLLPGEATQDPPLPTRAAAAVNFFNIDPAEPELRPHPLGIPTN
5-hydroxytryptamine receptor 4 (Cavia porcellus), sequence (O70528 whole entry): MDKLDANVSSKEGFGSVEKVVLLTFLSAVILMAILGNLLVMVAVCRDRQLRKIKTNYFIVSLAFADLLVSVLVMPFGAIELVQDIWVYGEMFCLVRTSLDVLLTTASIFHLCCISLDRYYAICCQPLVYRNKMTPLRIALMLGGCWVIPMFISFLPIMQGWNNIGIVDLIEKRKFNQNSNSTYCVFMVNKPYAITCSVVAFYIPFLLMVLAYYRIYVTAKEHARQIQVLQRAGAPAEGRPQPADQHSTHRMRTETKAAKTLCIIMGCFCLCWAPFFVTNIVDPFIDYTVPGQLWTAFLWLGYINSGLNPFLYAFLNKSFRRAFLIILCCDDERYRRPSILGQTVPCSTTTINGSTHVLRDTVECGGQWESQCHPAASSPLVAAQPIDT
5-hydroxytryptamine receptor 4, sequence (O70528 whole entry): as above
T3 sequence (P28223 whole entry): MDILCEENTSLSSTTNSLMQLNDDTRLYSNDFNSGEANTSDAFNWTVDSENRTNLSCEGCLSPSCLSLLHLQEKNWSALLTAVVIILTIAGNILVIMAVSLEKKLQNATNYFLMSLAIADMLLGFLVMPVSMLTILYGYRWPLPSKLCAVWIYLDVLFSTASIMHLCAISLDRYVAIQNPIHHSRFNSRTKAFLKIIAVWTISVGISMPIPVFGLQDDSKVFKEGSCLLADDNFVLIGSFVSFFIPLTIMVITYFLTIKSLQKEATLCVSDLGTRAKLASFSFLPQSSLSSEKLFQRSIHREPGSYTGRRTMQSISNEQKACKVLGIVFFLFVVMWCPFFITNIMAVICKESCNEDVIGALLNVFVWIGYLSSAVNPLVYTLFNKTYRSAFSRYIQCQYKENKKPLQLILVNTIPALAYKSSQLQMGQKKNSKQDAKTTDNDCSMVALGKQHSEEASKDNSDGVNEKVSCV
5-hydroxytryptamine receptor 2B (Homo sapiens), sequence (P41595 whole entry): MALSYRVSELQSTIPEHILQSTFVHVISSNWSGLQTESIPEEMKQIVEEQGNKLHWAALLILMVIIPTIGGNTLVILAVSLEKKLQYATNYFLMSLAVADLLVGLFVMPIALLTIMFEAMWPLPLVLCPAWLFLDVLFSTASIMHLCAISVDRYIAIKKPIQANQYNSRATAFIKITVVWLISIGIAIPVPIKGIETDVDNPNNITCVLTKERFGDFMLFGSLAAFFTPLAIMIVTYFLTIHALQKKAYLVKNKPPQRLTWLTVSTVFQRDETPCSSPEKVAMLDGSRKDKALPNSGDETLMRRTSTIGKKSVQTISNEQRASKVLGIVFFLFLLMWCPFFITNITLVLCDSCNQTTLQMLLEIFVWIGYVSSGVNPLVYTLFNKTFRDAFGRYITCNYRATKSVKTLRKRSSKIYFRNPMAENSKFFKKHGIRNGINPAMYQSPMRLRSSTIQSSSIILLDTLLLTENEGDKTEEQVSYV
5-hydroxytryptamine receptor 1D (Rattus norvegicus), sequence (P28565 whole entry): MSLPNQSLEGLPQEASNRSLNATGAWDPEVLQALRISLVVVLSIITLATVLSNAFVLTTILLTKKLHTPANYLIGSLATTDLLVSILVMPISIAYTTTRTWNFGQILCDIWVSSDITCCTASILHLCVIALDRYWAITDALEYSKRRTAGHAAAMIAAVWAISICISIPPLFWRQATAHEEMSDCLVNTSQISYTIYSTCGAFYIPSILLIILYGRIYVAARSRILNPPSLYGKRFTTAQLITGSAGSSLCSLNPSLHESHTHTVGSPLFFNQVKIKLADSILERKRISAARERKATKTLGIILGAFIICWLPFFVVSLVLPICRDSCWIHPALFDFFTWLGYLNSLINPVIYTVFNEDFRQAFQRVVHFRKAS
5-hydroxytryptamine receptor 1B (Rattus norvegicus), sequence (P28564 whole entry): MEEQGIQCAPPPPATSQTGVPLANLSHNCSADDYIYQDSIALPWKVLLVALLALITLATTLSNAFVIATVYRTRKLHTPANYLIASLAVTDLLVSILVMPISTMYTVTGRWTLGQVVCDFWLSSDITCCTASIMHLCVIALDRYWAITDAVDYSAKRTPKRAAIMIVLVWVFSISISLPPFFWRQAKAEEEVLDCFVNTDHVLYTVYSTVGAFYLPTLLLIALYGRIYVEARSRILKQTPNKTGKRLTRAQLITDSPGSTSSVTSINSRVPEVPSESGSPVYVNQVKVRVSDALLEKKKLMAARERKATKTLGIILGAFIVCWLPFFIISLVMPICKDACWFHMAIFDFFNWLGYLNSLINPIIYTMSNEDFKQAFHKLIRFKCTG

Structure (SMILES) | inhibition [16] | inhibition ([17]; filed as antagonist) | Ki ([18]; read-out: Ki) | inhibition ([19]; filed as agonist) | inhibition ([20]; filed as agonist) | inhibition [19] | other results
COc1cc(N)c(Cl)cc1C(=O)CCC1CCN(CCNS(=O)(=O)c2ccc(N)c(Br)c2)CC1 | 39% | 85% | 5.3 nM | 60% | 100% | – | Ki [1]: 160 nM; inhibition [2]: 41%; inhibition [3]: 92.6%; inhibition [4]: 100%; Ki [5]: 330 nM; inhibition [6]: 93.6%; inhibition [7]: 51.1%; inhibition [8]: 62.3%; inhibition [9]: 66.1%; Activity (Mus musculus [10]): inactive; Activity (Mus musculus [11]): Active; Activity [12]: Non-Toxic; Activity [13]: Non-Toxic; Activity [14]: Non-Toxic; Ki ([15]; read-out: Ki): 219 nM; Activity (Mus musculus [21]): inactive
COc1ccc(S(=O)(=O)NCCN2CCC(CCC(=O)c3cc(Cl)c(N)cc3OC)CC2)c(OC)c1 | inactive | 45% | 18.7 nM | – | 100% | 19% | –
COc1cc(N)c(Cl)cc1C(=O)CCC1CCN(CCNS(=O)(=O)c2cc(Br)c(N)c(Br)c2)CC1 | – | 83% | 8.7 nM | 46% | 100% | – | Ki ([15]; read-out: Ki): 140 nM; inhibition ([16]; filed as antagonist): 52%
COc1cc(N)c(Cl)cc1C(=O)CCC1CCN(CCNS(=O)(=O)c2cc(Br)ccc2Br)CC1 | 16% | 52% | 16.3 nM | 51% | 100% | – | –
COc1ccc(NS(=O)(=O)c2sc3ccc(Cl)cc3c2C)cc1N1CCNCC1 | – | – | – | – | – | – | Ki ([15]; hek293): Active
COc1cc(N)c(Cl)cc1C(=O)CCC1CCN(CCNS(=O)(=O)c2ccc3c(c2)N(C)CCO3)CC1 | inactive | – | 50 nM | – | 100% | 12% | inhibition [17]: 7%
COc1cc(N)c(Cl)cc1C(=O)CCC1CCN(CCNS(=O)(=O)c2ccc3c(c2)NC(=O)CO3)CC1 | inactive | – | 6.2 nM | – | 100% | 30% | inhibition ([17]; filed as agonist): 40%
COc1cc(N)c(Cl)cc1C(=O)CCC1CCN(CCNS(=O)(=O)c2ccc(OC)c(N3CCN(C)CC3)c2)CC1 | 4% | 43% | 3.46 nM | 75% | 97% | – | –
CCCCN1CCC(CCC(=O)c2cc(Cl)c(N)cc2OC)CC1 | – | – | – | – | – | – | Ki ([15]; hek293): Active; Ki [18]: Active

Now from value to compound, other results behind:

inhibition [16] | inhibition ([17]; filed as antagonist) | Ki ([18]; read-out: Ki) | inhibition ([19]; filed as agonist) | inhibition ([20]; filed as agonist) | inhibition [19] | Structure (SMILES) | other results
7% | 67% | 7.7 nM | 56% | 100% | – | COc1cc(N)c(Cl)cc1C(=O)CCC1CCN(CCNS(=O)(=O)c2ccc(NC(C)=O)cc2)CC1 | Ki ([15]; read-out: Ki): 834 nM
7% | 46% | 1.97 nM | 76% | 100% | – | COc1cc(N)c(Cl)cc1C(=O)CCC1CCN(CCNS(=O)(=O)c2ccc(N)cc2)CC1 | –
20% | 85% | 22.5 nM | 41% | 100% | – | COc1ccc(S(=O)(=O)NCCN2CCC(CCC(=O)c3cc(Cl)c(N)cc3OC)CC2)cc1Cl | Ki ([15]; read-out: Ki): 158 nM
10% | – | 12.2 nM | – | 100% | 11% | COc1ccc(S(=O)(=O)CCCN2CCC(CCC(=O)c3cc(Cl)c(N)cc3OC)CC2)cc1 | inhibition [17]: 33%
inactive | – | 18 nM | – | 100% | 20% | COc1cc(N)c(Cl)cc1C(=O)CCC1CCN(CCNS(=O)(=O)c2ccc(C)cc2)CC1 | inhibition [17]: 15%
inactive | – | 26 nM | 41% | 100% | – | COc1ccc(S(=O)(=O)NCCCN2CCC(CCC(=O)c3cc(Cl)c(N)cc3OC)CC2)cc1 | inhibition [17]: inactive
inactive | 72% | 24.3 nM | – | 99% | 24% | COc1ccc(S(=O)(=O)NCCN2CCC(CCC(=O)c3cc(Cl)c(N)cc3OC)CC2)cc1Br | Ki ([15]; read-out: Ki): 147 nM
3% | 58% | 8.2 nM | – | 100% | 30% | COc1ccc(S(=O)(=O)NCCN2CCC(CCC(=O)c3cc(Cl)c(N)cc3OC)CC2)cc1OC | –
36% | 52% | 12.3 nM | 48% | 100% | – | COc1ccc(S(=O)(=O)NCCN2CCC(CCC(=O)c3cc(Cl)c(N)cc3OC)CC2)cc1 | –
inactive | – | – | – | – | 10% | COc1ccc(S(=O)(=O)N2CCC(CCC(=O)c3cc(Cl)c(N)cc3OC)CC2)cc1 | inhibition [17]: inactive; inhibition [20]: 20%
